Measurements reported in publication PMC5648763, “Novel cycloneolignans from Vernicia fordii with inhibitory effects on over-activation of BV2 cells in vitro” (Scientific Reports, 2017).

Experiments:
Format in all cases: cell-based, murine
[1] = tested on: NO production in LPS-induced BV2 cells; assay: Nitrite assay (Griess reaction): NO production in LPS-induced BV2 cells; conditions: Mus musculus, BV-2, LPS (100 ng/ml)-activated BV2 cells, 24 h, read-out: Inhibitory effect IC50 on NO production (compounds)
Description: (§1) Figure 5 Effect of compounds 1 and 2 on LPS-induced NO production in microglial cells. (A) BV-2 cells were treated with compounds 1 and 2 in the presence of LPS (100 ng/ml) for 24 h at the indicated concentrations. Cell viability was detected by MTT assay. (B) BV-2 cells were treated with compounds 1 and 2 in the presence of LPS (100 ng/ml) for 24 h. NO production was tested by Griess reaction. Data are expressed as means ± SEM (n = 3). ^#P < 0.05 compared with the control group, *P < 0.05 compared with LPS group.
(§2) The murine microglial cell line BV-2 was from Shanghai Institutes for Biological Sciences, Chinese Academy of Sciences (kindly provided by Prof. Y.Q. Guo, Nankai University, China). BV-2 cells were grown (37 °C and 5% CO2) in DMEM supplemented with 10% FBS, 100 U/ml penicillin and 100 μ g/ml streptomycin. Stock cells were passaged about three times/week and used within 8 passages.
The production of NO in LPS-induced BV2 cells was assayed by Griess reaction[9]–[12]. The cells (2 × 10^4 cells/well) were plated into 96-well plates and incubated with tested samples with 100 ng/mL LPS. Twenty-four hours later, Griess reagent was added into the supernatant at room temperature. And the plates were read on a plate reader at 540 nm after fifteen minutes.

[2] = tested on: IL-6 mRNA expression in BV2 cells; assay: LPS-induced IL-6 mRNA expression in BV-2 cells (Real-time PCR); conditions: 10 μM, pretreated 2 h, then LPS (100 ng/mL) 4 h, qRT-PCR
Description: (§3) Figure 7 Effects of compounds 1, 1a, 1b, 2, 2a and 2b on LPS-induced IL-6 and IL-1β mRNA expression in microglial cells. BV-2 microglial cells were pretreated with compounds1, 2, 1a, 1b, 2a and 2b (10 μM) for 2 h and then stimulated with LPS (100 ng/mL). Total RNA was isolated 4 h after LPS treatment, the mRNA levels of IL-6 and IL-1β were measured by qRT-PCR. Data are expressed as means ± SEM (n = 3). ^#P < 0.05 compared with the control group, *P < 0.05 compared with LPS group. Mino stands for minocycline.
as §2
(§4) BV2 cells (4 × 10^5 cells/ml) were plated into 6-well plates and were pretreated with each sample for 2 h and then induced by LPS for 4 h. After that the total RNA was isolated using Trizol and converted to cDNA. CFX ConnectTM real-time PCR detection system (Bio-Rad, Hercules, CA, USA) was used for the experiment. The level of GAPDH gene was used for standardization.

[3] = Cell viability / cytotoxicity by MTT method; conditions: mouse
Description: as §1, §2
(§5) Viability of BV2 cells was tested by MTT method described in our previous work[9]–[12]. The cells (2 × 10^4 cells / well) were plated into 96-well plates and were pretreated with tested samples at different concentrations for 24 h. After the supernatant taken away, MTT (0.25 mg/ml) was added into the plate and incubated for 4 h at 37 °C. Finally, the formazan crystals were dissolved in DMSO and the absorbance of each well was recorded at 490 nm using a plate reader (Bio-Tek, Winooski, VT, USA).

BV2 cells = assay: Cell viability / cytotoxicity by MTT method
Description: as §1, §2, §5

[4] = tested on: IL-1β mRNA expression in BV2 cells; assay: LPS-induced IL-1β mRNA expression in BV-2 cells (Real-time PCR); conditions: 10 μM, pretreated 2 h, then LPS (100 ng/mL) 4 h, qRT-PCR
Description: as §3, §2, §4

| Compound | IC50 [1] | Effect on LPS-induced IL-6 mRNA expression [2] | IC50 at 24 h [3] | Cytotoxicity at the effective concentrations (BV2 cells) | Effect on LPS-induced IL-1β mRNA expression [4] |
| --- | --- | --- | --- | --- | --- |
| Oc1ccc(C2C3COC2(O)CC(O)c2cc(O)c(O)cc23)cc1O (stereo not shown) [Compound 1, Verniciasin A] | 1.46 ± 0.91 µM | suppressed | > 100 µM | without obvious cytotoxicities | suppressed |
| Oc1ccc(C2C3COC2(O)CC(O)c2cc(O)c(O)cc23)cc1O (stereo not shown) [Compound 1b, 7S, 8S, 7′S, 9′R- verniciasin A] | – | did not display inhibitory activity | – | – | did not display inhibitory activity |
| Oc1ccc(C2C3COC2(O)CC(O)c2cc(O)c(O)cc23)cc1O (stereo not shown) [Compound 1a, 7R, 8R, 7′R, 9′S-verniciasin A] | – | significant inhibitory action | – | – | significant inhibitory action |
| COC1CC2(O)OCC(c3cc(O)c(O)cc31)C2c1ccc(O)c(O)c1 (racemic) [Compound 2, (±) methoxylverniciasin A] | 17.4 ± 0.87 µM | did not show inhibitory effect | > 100 µM | without obvious cytotoxicities | did not show inhibitory effect |
| COC1CC2(O)OCC(c3cc(O)c(O)cc31)C2c1ccc(O)c(O)c1 (stereo not shown) [Compound 2a, 7R, 8R, 7′R, 9′S−7′-methoxylverniciasin A] | – | moderate inhibitory effect | – | – | moderate inhibitory effect |
